The text below walks through data of patent US20180371404A1, “METABOLIC ENGINEERING OF MEMBRANE PROTEINS TO IMPROVE ESCHERICHIA COLI MEMBRANE INTEGRITY AND PRODUCTION OF FATTY ACIDS” (priority 2017, published 2018).

“And” between values parts separate entries of the source, which are not always exact repeats. Identical values can stand only once.

The test system of experiment [1] is BW25113. The note with it: phenol at 50-75% of the MIC in LB at 37° C.; cited from earlier work.
In experiment [2] the test system is E. coli KO11. The note with it: cited from earlier work.
Experiment [3] concerns E. coli Frag1. The note with it: 8 mM acetate; cited from earlier work.
For experiment [4], the system named is E. coli MG1655. Briefly: Membrane integrity (SYTOX Green, flow cytometry) during C8 challenge. The class given is cell-based. On the procedure:
Membrane Integrity Characterization: Cells were centrifuged, washed twice, and then resuspended in PBS buffer (pH 7.0) at a final OD550 of ˜1. One hundred microliter (100 μl) of this suspension was mixed with 900 μl of PBS buffer and SYTOX Green (Invitrogen) was added to a final concentration of 5.0 μM. After resting at room temperature for 15 minutes, cells were analyzed by a BD Biosciences FACSCanto II flow cytometer equipped with standard factory-installed 488 nm excitation laser, signal collection optics, and fluorescence emission filter configuration. Instrument sheath fluid was filtered (0.22 μm) PBS buffer. Green fluorescence from stained cells was collected in the FL1 channel (525/50 nm). Forward scatter (FSC), side scatter (SSC), and FL1 (Green) parameters were collected as logarithmic signals. All data collections were performed at low flow rate setting (˜12 μl/min) and cell concentrations were such that the event rate was below 5,000 events/s. All samples were analyzed immediately after staining. Background noise and small debris was eliminated from data collection via a side scatter signal threshold that was established by examining samples containing only SYTOX Green staining buffer. Bacteria in SYTOX Green-stained samples were readily identified on the basis of FSC and SSC signals and an appropriate “Cell” gate was drawn to limit FL1 analysis to bacteria and exclude non-cell events. A minimum of 20,000 cell-gated events were collected for each sample. Green fluorescence data for these “cell” events were plotted as histograms showing the signal distribution of bacteria in the sample [14]. Flow cytometry data for this work is available via Flow Repository (https://flowrepository.org) (FR-FCM-ZY2B).

The subject of experiment [5] is E. coli MG1655. The note with it: 40 mM; cited from earlier work.
Experiment [6] relates to E. coli MG1655. Briefly: Octanoic acid tolerance characterization (specific growth rate). The class given is cell-based. Here is the method:
2.2 Strain Tolerance Characterization: Octanoic acid tolerance was characterized in 50 ml MOPS defined minimal medium with 2.0% (wt/v) dextrose and 10 mM octanoic acid (1.44 g/L) in 250 ml baffled flasks at 220 rpm and initial pH at 7.0, 30° C. MOPS media contains the following: 8.37 g/L 3-(N-morpholino)propanesulfonic acid (MOPS), 0.72 g/L tricine, 2.92 g/L NaCl, 0.51 g/L NH4Cl, 1.6 g/L KOH, 50 mg/L MgCl2, 48 mg/L K2SO4, 348 mg/L K2HPO4, 0.215 mg/L Na2SeO3, 0.303 mg/L Na2MoO4.2H2O, 0.17 mg/L ZnCl2, 2.5 μg/L FeCl2.4H2O, 0.092 μg/L CaCl2.2H2O, 0.031 μg/L H3BO3, 0.020 μg/L MnCl2.4H2O, 0.0090 μg/L CoCl2.4H2O, and 0.0020 μg/L CuCl2.4H2O [43, 44]. Specific growth rate μ (h-1) was calculated by fitting the equation OD=OD0e^μt over the duration of the exponential growth phase. […] Dry cell weight (DCW) was calculated from the optical density at 550 nm (1 OD550=0.333 g DCW/L).

Experiment [7] deals with E. coli BW25113. The note with it: up to 20 mM C8, pH 7.0, 37° C.; cited from earlier work.
In experiment [8] the test system is E. coli LY01. The note with it: cited from earlier work.
The test system of experiment [9] is BW25113. The note with it: 10 vol % hexane in LB at 37° C.; cited from earlier work.

As to `Oc1ccccc1` [Phenol], the “survival on deletion of fadL” value in experiment [1] is recorded as “Deletion of fadL from BW25113 had no impact on survival”.
`CCO` [ethanol]: the growth entry in experiment [2] (35 g/L ethanol, engineered E. coli KO11) is on record as “grows poorly”. In addition, the cells surviving challenge entry in experiment [2] (100 g/L ethanol, KO11) is recorded as “less than 10%”.
`CC(=O)O` [acetate]: the “reduction of specific growth rate” value in experiment [3] is reported as 50%.
As for `CCCCCCCC(=O)O` [C8, octanoic acid], the “increase in membrane integrity” value in experiment [4] (10 mM C8, Gen-fadL vs Gen-empty) is reported as 14%; in experiment [4] (10 mM C8, Pla-fadL vs Pla-empty) it was 25%. In addition, the “percentage of cells with intact membranes, lower than MG1655” value in experiment [4] (10 mM C8, ΔfadL vs MG1655) was 23%. For the same compound, the “increase in percentage of cells with intact membranes” value in experiment [4] (10 mM C8, ΔompF vs wild-type control strain) is on record as 18%; in experiment [4] (C8 challenge, ΔompF+Pla-fadL vs Pla-empty), 37%. In addition, the growth inhibition entry in experiment [5] is “completely inhibitory”. Also, the specific growth rate in experiment [6] (10 mM C8, strain Gen-empty) was 0.31 h⁻¹; in experiment [6] (10 mM C8, strain Gen-fadL), 0.33 h⁻¹; in [6] (10 mM C8, strain MG1655, MOPS+2% dextrose, 30° C., initial pH 7.0), 0.31 h⁻¹; in experiment [6] (10 mM C8, strain Pla-empty) it was 0.31 h⁻¹; in [6] (10 mM C8, strain Pla-fadL) it was 0.33 h⁻¹ and 0.32 h⁻¹; in experiment [6] (10 mM C8, strain ΔfadL), 0.27 h⁻¹. The specific growth rate in experiment [6] (10 mM C8, strain ΔompF+Pla-fadL) is 0.36 h⁻¹. Also, the “specific growth rate, higher than control” value in experiment [6] (10 mM C8, ΔompF+Pla-fadL vs Pla-empty) is recorded as 18%; in experiment [6] (C8 challenge, Gen-fadL vs Gen-empty) it was 7%; in experiment [6] (C8 challenge, Pla-fadL vs Pla-empty) it was 8%. The “specific growth rate, higher than individual increased expression of fadL” value in experiment [6] (10 mM C8, ΔompF+Pla-fadL vs Pla-fadL) is 12%. In addition, in experiment [6] (10 mM C8, ΔompF+Pla-fadL vs ΔompF+Pla-empty), the “specific growth rate, higher than individual deletion of ompF” value is 10%. Further, the “specific growth rate, lower than MG1655” value in experiment [6] (C8 challenge, ΔfadL vs MG1655) was 12%. Also, in [6] (C8 challenge, ΔompF vs MG1655), the “specific growth rate, higher than MG1655” value came to 7%. The “magnitude of intracellular acidification on deletion of ompF” value in experiment [7] is “assessed via the maximum OD. Deletion of ompF decreased the magnitude”.
For `O=Cc1ccco1` [Furfural], the “concentration that inhibits growth completely” value in experiment [8] was 3.5 g/L.
On to `CCCCCC(=O)O` [hexanoic acid], for which, in experiment [5], the growth inhibition result was “completely inhibitory”.
Turning to `CCCCCC` [Hexane], the “survival (assessed by OD) on deletion of fadL” value in experiment [9] is on record as “Deletion of fadL from BW25113 increased survival, as assessed by OD”.
